Broadly, the pIC50 is the negative decadic logarithm of the IC50, by convention in mol/L. Usually pEC50 stands for −log10 of the EC50, conventionally taken in molar units. As a reminder, the inhibition is the percentage by which the read-out fell short of the control. The term pKd denotes −log10 of the Kd, conventionally taken in molar units.

Structures are written as SMILES. pEC50, pIC50, pKd: −log10 of the molar value.

Data on three molecules can be found in ChEMBL document CHEMBL5233285, “Recent Update on the Development of PCSK9 Inhibitors for Hypercholesterolemia Treatment” (J Med Chem, 2022).

Assay [1] has as its target T1, PCSK9/LDLR (Homo sapiens, UniProt Q8NBP7). Put plainly: Inhibition of PCSK9-LDLR (unknown origin) protein-protein interaction. The class given is protein assay.
Assay [2] has as its target T2, Proprotein convertase subtilisin/kexin type 9 (Homo sapiens, UniProt Q8NBP7). The assay can be described thus: Inhibition of PCSK9 in human HepG2 cells assessed as restoration of LDLR. The assay is classed as cell-based.
In assay [3] the target is T2, Proprotein convertase subtilisin/kexin type 9. Put plainly: Inhibition of PCSK9 in human HepG2 cells assessed as increase in LDL uptake. The class given is cell-based.
For assay [4] the target is unchanged. The assay can be described thus: Inhibition of PCSK9 in human HepG2 cells assessed as increase in LDL uptake at 10 uM. The class given is cell-based.
Assay [5] has the same target. Put plainly: Inhibition of PCSK9 (unknown origin).
Assay [6] has the same target. The assay can be described thus: Binding affinity to human PCSK9.
The target in assay [7] is Proprotein convertase subtilisin/kexin type 9 (Mus musculus, UniProt Q80W65). The assay can be described thus: Binding affinity to mouse PCSK9.
Sequence of Proprotein convertase subtilisin/kexin type 9 (Mus musculus, UniProt Q80W65) (Q80W65 35-155 limits assumed): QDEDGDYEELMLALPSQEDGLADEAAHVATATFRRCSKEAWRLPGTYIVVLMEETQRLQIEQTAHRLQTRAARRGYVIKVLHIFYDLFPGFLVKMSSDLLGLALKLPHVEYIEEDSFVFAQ
Sequence of Proprotein convertase subtilisin/kexin type 9 (Mus musculus, UniProt Q80W65) (Q80W65 156-694 limits assumed): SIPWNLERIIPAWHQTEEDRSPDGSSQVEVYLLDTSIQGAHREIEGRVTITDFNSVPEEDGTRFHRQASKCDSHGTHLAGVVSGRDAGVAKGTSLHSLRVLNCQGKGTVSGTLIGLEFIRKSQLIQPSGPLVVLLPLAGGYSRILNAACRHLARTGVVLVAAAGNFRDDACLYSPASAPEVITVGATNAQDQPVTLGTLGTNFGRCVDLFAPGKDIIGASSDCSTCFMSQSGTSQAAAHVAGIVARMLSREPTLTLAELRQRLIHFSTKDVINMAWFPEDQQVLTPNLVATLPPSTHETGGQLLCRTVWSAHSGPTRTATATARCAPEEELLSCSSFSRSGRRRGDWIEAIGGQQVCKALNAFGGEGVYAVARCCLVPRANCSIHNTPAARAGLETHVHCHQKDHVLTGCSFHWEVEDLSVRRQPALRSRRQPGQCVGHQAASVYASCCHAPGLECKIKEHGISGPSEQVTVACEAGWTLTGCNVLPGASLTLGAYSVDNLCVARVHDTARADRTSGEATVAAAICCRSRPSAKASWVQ
For assay [8], the target named is T1, PCSK9/LDLR. The assay can be described thus: Inhibition of PCSK9-LDLR protein-protein interaction in human HepG2 cells assessed as increase in LDL uptake. The class given is cell-based.
Assay [9] concerns Mus musculus. The assay can be described thus: Hypocholesterolemic activity in C57BL/6 mouse assessed as increase in LDLR level at 30 mg/kg. The class given is functional.
The subject of assay [10] is Mus musculus. The assay can be described thus: Hypocholesterolemic activity in C57BL/6 mouse assessed as reduction in TC level at 30 mg/kg. The assay is classed as functional. The arrangement: scale not given: the % may be the effect or the level left.

T1 sequence (Q8NBP7 31-152 limits assumed): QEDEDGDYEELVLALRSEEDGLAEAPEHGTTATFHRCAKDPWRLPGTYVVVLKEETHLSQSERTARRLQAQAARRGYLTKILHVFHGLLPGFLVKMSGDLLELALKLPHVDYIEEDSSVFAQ
T1 sequence (Q8NBP7 153-692 limits assumed): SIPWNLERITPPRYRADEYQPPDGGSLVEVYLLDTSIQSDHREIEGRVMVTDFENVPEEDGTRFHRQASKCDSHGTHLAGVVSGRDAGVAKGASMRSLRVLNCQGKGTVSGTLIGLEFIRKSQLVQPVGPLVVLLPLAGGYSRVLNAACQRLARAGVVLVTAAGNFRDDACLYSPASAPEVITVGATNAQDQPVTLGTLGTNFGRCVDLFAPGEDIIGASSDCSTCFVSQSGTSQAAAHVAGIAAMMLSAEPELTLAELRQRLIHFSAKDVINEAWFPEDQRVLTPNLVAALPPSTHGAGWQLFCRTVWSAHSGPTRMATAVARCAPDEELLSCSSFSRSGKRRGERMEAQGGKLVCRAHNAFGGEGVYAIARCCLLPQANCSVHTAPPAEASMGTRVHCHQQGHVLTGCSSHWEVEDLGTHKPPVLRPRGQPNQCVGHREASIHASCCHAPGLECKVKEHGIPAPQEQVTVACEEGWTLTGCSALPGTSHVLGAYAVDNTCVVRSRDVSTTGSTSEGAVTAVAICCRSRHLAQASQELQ
T1 sequence (P01130 22-860 partner limits assumed): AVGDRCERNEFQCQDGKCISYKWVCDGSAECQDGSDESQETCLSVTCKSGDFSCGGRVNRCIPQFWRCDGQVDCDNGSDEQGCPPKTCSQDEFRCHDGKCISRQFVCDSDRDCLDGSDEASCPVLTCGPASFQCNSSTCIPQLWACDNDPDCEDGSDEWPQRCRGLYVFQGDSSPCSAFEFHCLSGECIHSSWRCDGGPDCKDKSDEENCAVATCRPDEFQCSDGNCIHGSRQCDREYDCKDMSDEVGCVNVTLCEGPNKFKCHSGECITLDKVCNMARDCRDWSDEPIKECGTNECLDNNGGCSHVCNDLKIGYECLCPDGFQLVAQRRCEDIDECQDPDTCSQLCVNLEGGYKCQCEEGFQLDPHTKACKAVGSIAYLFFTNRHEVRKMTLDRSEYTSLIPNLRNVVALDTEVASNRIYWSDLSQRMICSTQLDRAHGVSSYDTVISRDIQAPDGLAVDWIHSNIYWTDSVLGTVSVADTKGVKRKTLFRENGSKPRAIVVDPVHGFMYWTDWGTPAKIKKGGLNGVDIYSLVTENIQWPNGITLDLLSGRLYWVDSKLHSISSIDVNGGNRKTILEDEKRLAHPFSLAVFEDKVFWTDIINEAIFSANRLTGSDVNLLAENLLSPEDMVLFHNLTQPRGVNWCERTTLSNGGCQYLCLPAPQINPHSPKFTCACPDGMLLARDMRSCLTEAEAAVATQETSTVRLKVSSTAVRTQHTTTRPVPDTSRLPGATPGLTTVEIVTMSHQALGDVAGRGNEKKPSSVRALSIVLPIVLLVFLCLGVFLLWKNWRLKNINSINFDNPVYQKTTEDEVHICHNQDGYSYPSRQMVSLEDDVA
T2 sequence (Q8NBP7 31-152 limits assumed): as the sequence (Q8NBP7 31-152 limits assumed) above
T2 sequence (Q8NBP7 153-692 limits assumed): as the sequence (Q8NBP7 153-692 limits assumed) above

In turn, `CC(=O)N[C@H](C(=O)N[C@H](C(=O)N[C@@H](Cc1ccccc1)C(=O)N[C@H](C(=O)N[C@@H](CO)C(=O)N[C@@H](Cc1c[nH]c2ccccc12)C(=O)N[C@@H](CCC(=O)O)C(=O)N[C@@H](CCC(=O)O)C(=O)N[C@@H](Cc1ccc(O)cc1)C(=O)N[C@@H](CC(C)C)C(=O)N[C@@H](CC(=O)O)C(=O)N[C@@H](Cc1c[nH]c2ccccc12)C(=O)N[C@H](C(N)=O)C(C)C)[C@@H](C)O)C(C)C)[C@@H](C)O` showed a pIC50 against PCSK9/LDLR [1] of 6.10. Further, the values for the pEC50 in [2] and in assay [3] were 5.30 and 5.22, respectively. For the same molecule, in assay [4], the inhibition is 56.5%.
As for `CC(=O)N[C@H](CSCc1cn(CCCCCC(=O)NCCOCCOCCOCCOCCOCCOCCOCCOCCOCCOCCC(=O)NCCCC[C@H](NC(=O)COCCOCCOCCOCCOCCOCCOCCOCCOCCOCCNC(=O)C(N)CCCCn2cc(CSC[C@@H](NC(C)=O)C(=O)N[C@H](C(=O)N[C@H](C(=O)N[C@@H](Cc3ccccc3)C(=O)N[C@H](C(=O)N[C@@H](CO)C(=O)N[C@@H](Cc3c[nH]c4ccccc34)C(=O)N[C@@H](CCC(=O)O)C(=O)N[C@@H](CCC(=O)O)C(=O)N[C@@H](Cc3ccc(O)cc3)C(=O)N[C@@H](CC(C)C)C(=O)N[C@@H](CC(=O)O)C(=O)N[C@@H](Cc3c[nH]c4ccccc34)C(=O)N[C@H](C(=O)N[C@@H](CCCNC(=N)N)C(=O)N[C@@H](CCCNC(=N)N)C(=O)NCC(=O)O)C(C)C)[C@@H](C)O)C(C)C)[C@@H](C)O)nn2)C(=O)NCC(=O)N[C@@H](CCCNC(=N)N)C(=O)N[C@@H](CCCNC(=N)N)C(=O)N[C@@H](CCCCN)C(=O)N[C@@H](Cc2c[nH]c3ccccc23)C(N)=O)nn1)C(=O)N[C@H](C(=O)N[C@H](C(=O)N[C@@H](Cc1ccccc1)C(=O)N[C@H](C(=O)N[C@@H](CO)C(=O)N[C@@H](Cc1c[nH]c2ccccc12)C(=O)N[C@@H](CCC(=O)O)C(=O)N[C@@H](CCC(=O)O)C(=O)N[C@@H](Cc1ccc(O)cc1)C(=O)N[C@@H](CC(C)C)C(=O)N[C@@H](CC(=O)O)C(=O)N[C@@H](Cc1c[nH]c2ccccc12)C(=O)N[C@H](C(=O)N[C@@H](CCCNC(=N)N)C(=O)N[C@@H](CCCNC(=N)N)C(=O)NCC(=O)O)C(C)C)[C@@H](C)O)C(C)C)[C@@H](C)O` (stereo partly specified), in assay [5], the pIC50 is 6.64.
For the molecule `CCNC(=O)[C@@H]1CSCC(=O)N[C@@H](Cc2ccccc2)C(=O)N[C@@H](C(C)C)C(=O)N2CCC[C@H]2C(=O)N[C@@H]([C@@H](C)O)C(=O)N[C@@H]([C@@H](C)O)C(=O)N[C@@H](Cc2ccc(-c3ccccc3)cc2)C(=O)N(C)[C@@H](C)C(=O)N[C@@H](Cc2ccc(-c3ccccc3)cc2)C(=O)N(C)[C@@H](C)C(=O)N[C@@H](CCC(=O)O)C(=O)N[C@@H](C)C(=O)N2CCC[C@H]2C(=O)N1`, the figures for the pKd in assay [6] and in [7] were 8.21 and 7.68, respectively. This molecule also showed a pIC50 at PCSK9/LDLR [1] of 8.70. The pEC50 on PCSK9/LDLR [8] was 6.77. Further, the Activity is on record as 90% in the assay on Mus musculus [9] and 43% with Mus musculus [10].
